Measurements reported in the NIST ThermoML archive (doi:10.1021/je800713c).

Experiments:
[1] = mn = molality of the nth substance listed, in mol/kg; conditions: 298.15 K, 101 kPa, Liquid
[2] = cn = amount concentration of the nth substance listed, in mol/dm3; conditions: 298.15 K, 101 kPa, Liquid, Alternating current cell with electrodes

CC(C)C[C@H](NC(=O)CN)C(=O)O [glycyl-L-leucine] + O
[1], Vibrating tube method
Conditions | mass density [kg/m3]
m1 = 0.01944 | 1000.64
m1 = 0.02958 | 1001.13
m1 = 0.0395 | 1001.61
m1 = 0.04928 | 1002.08
m1 = 0.057 | 1002.44
m1 = 0.07128 | 1003.12
m1 = 0.07696 | 1003.39
m1 = 0.09125 | 1004.06

CC(C)[C@H](NC(=O)CN)C(=O)O [glycyl-L-valine] + O
[1], Vibrating tube method
Conditions | mass density [kg/m3]
m1 = 0.02261 | 1000.88
m1 = 0.03982 | 1001.76
m1 = 0.06223 | 1002.9
m1 = 0.07858 | 1003.73
m1 = 0.1017 | 1004.89
m1 = 0.1513 | 1007.38
m1 = 0.1799 | 1008.77

NCC(=O)NCC(=O)O [glycylglycine] + O
[1], Vibrating tube method
Conditions | mass density [kg/m3]
m1 = 0.06033 | 1003.05
m1 = 0.08146 | 1004.21
m1 = 0.1018 | 1005.33
m1 = 0.1481 | 1007.84
m1 = 0.2504 | 1013.33
m1 = 0.2965 | 1015.78
m1 = 0.3421 | 1018.08

CCCC(=O)[O-].[Na+] [sodium butyrate] + O
Conditions | mass density [kg/m3] | molar conductivity [S·m2/mol]
[1], m1 = 0.5 | 1016.31 | –
[1], m1 = 1 | 1033.73 | –
[1], m1 = 1.5 | 1049.36 | –
[1], m1 = 2 | 1064.03 | –
[2], c1 = 0.0003234 | – | 0.00796
[2], c1 = 0.001116 | – | 0.00795
[2], c1 = 0.001273 | – | 0.00794
[2], c1 = 0.001488 | – | 0.00792
[2], c1 = 0.00188 | – | 0.00788
[2], c1 = 0.002076 | – | 0.00787
[2], c1 = 0.00243 | – | 0.00784
[2], c1 = 0.003167 | – | 0.00766
[2], c1 = 0.006298 | – | 0.00753
[2], c1 = 0.008849 | – | 0.00744
[2], c1 = 0.01124 | – | 0.00737
[2], c1 = 0.01353 | – | 0.00732
[2], c1 = 0.0155 | – | 0.00727
[2], c1 = 0.01721 | – | 0.00724
[2], c1 = 0.01916 | – | 0.0072
[2], c1 = 0.02091 | – | 0.00717
[2], c1 = 0.02284 | – | 0.00714
[2], c1 = 0.02481 | – | 0.0071
[2], c1 = 0.02647 | – | 0.00707

O [water] + CC(C)C[C@H](NC(=O)CN)C(=O)O
Conditions | mass density [kg/m3]
[1], Vibrating tube method, m2 = 0 | 999.705

O [water] + CC(C)[C@H](NC(=O)CN)C(=O)O
Conditions | mass density [kg/m3]
[1], Vibrating tube method, m2 = 0 | 999.705

O [water] + NCC(=O)NCC(=O)O
Conditions | mass density [kg/m3]
[1], Vibrating tube method, m2 = 0 | 999.705
